Tests used:
[1] = target: T1, histamine H1 -receptors (Cavia porcellus, UniProt P31389); assay: in vitro histamine H1-antagonism on isolated guinea pig ileum; conditions: cumulative concentration/action curves (van Rossum), read-out: H1 -antagonism ileum -log KB (converted)
T1 construct: isolated guinea pig ileum (H1); from tissue; host or cells: isolated guinea pig ileum
From the text: (§1) The compounds of formula I according to the invention are distinguished by a novel overall pharmacological activity that has not been described hitherto. […] Suitable for differentiating the two types of action are, for example, in vitro tests on isolated spontaneously beating guinea pig right atrium (H2) and on isolated guinea pig ileum (H1) (Black, J. W.; Duncan, W. A. M.; Durant, G. J., Ganellin, C. R.; Parsons, M. E. (1972), "Definition and Antagonism of Histamine H2 -receptors", Nature 236, 385-390). The concentration/action curves for determining the pharmacological parameters (-log KB) are recorded using a cumulative technique according to van Rossum, J. M. (1963), "Cumulative Dose-Response Curves. II. Technique for the Making of Dose-Response Curves in Isolated Organs and the Evaluation of Drug Parameters", Arch. Int. Pharmacodyn. Ther. 143, 299-307.
(§2) (determined from isolated guinea pig ileum and atrium, […]

[2] = target: T2, histamine H2 -receptors (Cavia porcellus, UniProt P47747); assay: in vitro histamine H2-antagonism on isolated spontaneously beating guinea pig right atrium; conditions: cumulative concentration/action curves (van Rossum), read-out: H2 -antagonism atrium -log KB (converted)
T2 construct: isolated spontaneously beating guinea pig right atrium (H2); from tissue; host or cells: isolated spontaneously beating guinea pig right atrium
From the text: as §1, §2

T1 sequence (P31389 whole entry): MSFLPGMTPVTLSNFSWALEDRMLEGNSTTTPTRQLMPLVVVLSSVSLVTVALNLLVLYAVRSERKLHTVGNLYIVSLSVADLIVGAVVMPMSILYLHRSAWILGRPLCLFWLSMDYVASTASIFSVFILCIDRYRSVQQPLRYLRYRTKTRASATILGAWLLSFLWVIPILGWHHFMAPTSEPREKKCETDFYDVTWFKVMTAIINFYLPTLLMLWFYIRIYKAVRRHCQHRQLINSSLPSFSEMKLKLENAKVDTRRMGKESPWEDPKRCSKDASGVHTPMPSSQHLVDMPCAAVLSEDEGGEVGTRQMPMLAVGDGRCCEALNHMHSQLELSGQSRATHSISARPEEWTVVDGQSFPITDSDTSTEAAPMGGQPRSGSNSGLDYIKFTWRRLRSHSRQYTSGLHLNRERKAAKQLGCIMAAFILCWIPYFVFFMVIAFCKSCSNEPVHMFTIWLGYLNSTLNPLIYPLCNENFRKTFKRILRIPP
T2 sequence (P47747 whole entry): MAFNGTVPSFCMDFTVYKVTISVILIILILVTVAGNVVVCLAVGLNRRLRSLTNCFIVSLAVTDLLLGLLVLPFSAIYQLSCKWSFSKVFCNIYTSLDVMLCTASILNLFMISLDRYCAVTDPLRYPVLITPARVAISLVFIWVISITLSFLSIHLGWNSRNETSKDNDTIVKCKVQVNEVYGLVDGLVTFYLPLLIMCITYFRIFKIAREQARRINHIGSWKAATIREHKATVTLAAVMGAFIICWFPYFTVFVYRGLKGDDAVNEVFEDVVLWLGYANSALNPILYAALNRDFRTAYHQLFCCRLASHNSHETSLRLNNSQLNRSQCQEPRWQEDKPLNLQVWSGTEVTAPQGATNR

SMILES	Kb [1] [nM]	Kb [2] [nM]
CN(CCCCCCNC(=NC#N)NCCSCc1csc(N=C(N)N)n1)CCN(Cc1ccc(F)cc1)c1ccccn1 [Example 84]	3.63	302
CN(CCCCCCCNC(=O)NCCCOc1cccc(CN2CCCCC2)c1)CCN(Cc1ccc(F)cc1)c1ccccn1 [Example 72, N-[7-[N-[2-[N-(4-fluorobenzyl)-N-(2-pyridyl)amino]ethyl]-N-methylamino]heptyl]-N'-[3-[3-(piperidinomethyl)phenoxy]propyl]urea]	17.8	44.7
CN(C)Cc1ccc(CSCCNC(=C[N+](=O)[O-])NCCCN(C)CCN(Cc2ccc(F)cc2)c2ccccn2)o1 [Example 104, N-[2-[[5-[(dimethylamino)methyl]furfuryl]thio]ethyl]-N'-[3-[N-[2-[N-(4-fluorobenzyl)-N-(2-pyridyl)amino]ethyl]-N-methylamino]propyl]-2-nitro-1,1-ethenediamine]	10.7	1350
COc1ccc(CN(CCN(C)CCCCCCNC(=O)NCCSCc2csc(NC(=N)N)n2)c2ccccn2)cc1 [Example 89, N-[2-[[(2-guanidino-4-thiazolyl)methyl]thio]ethyl]-N'-[6-[N-[2-[N-(4-methoxybenzyl)-N-(2-pyridyl)amino]ethyl]-N-methylamino]hexyl]urea]	1.74	174
CN(CCCCCCNC(=O)NCCSCc1csc(NC(=N)N)n1)CCN(Cc1ccc(F)cc1)c1ccccn1 [Example 94, N-[6-[N-[2-[N-(4-fluorobenzyl)-N-(2-pyridyl)amino]ethyl]-N-methylamino]hexyl]-N'-[2-[[(2-guanidino-4-thiazolyl)methyl]thio]ethyl]urea]	1.58	141
COc1ccc(CN(CCN(C)CCCCCCNC(=O)NCCCOc2cccc(CN3CCCCC3)c2)c2ccccn2)cc1 [Example 66, N-[6-[N-[2-[N-(4-methoxybenzyl)-N-(2-pyridyl)amino]ethyl]-N-methylamino]hexyl]-N'-[3-[3-(piperidinomethyl)phenoxy]propyl]urea]	11.2	182
CN(CCNC(=NCCCCOc1cccc(CN2CCCCC2)c1)NC#N)CCC(c1ccc(Cl)cc1)c1ccccn1 (stereo not shown) [Example 1, N-[2-[N-[3-(4-chlorophenyl)-3-(2-pyridyl)propyl]-N-methylamino]ethyl]-N'-cyano-N"-[4-[3-(piperidinomethyl)phenoxy]butyl]guanidine]	63.1	2290
COc1ccc(CN(CCN(C)CCCCCCNC(=NCCCOc2cccc(CN3CCCCC3)c2)NC#N)c2ccccn2)cc1 [Example 55, N-cyano-N'-[6-[N-[2-[N-(4-methoxybenzyl)-N-(2-pyridyl)amino]ethyl]-N-methylamino]hexyl]-N"-[3-[3-(piperidinomethyl)phenoxy]propyl]guanidine]	7.24	372
CN(CCCCNC(=NCCSCc1csc(NC(=N)N)n1)NC#N)CCC(c1ccc(Cl)cc1)c1ccccn1 (stereo not shown) [Example 17, N-[4-[N-[3-(4-chlorophenyl)-3-(2-pyridyl)propyl]-N-methylamino]butyl]-N'-cyano-N"-[2-[[(2-guanidino-4-thiazolyl)methyl]thio]ethyl]guanidine]	5.01	166
CN(CCCNC(=NCCCOc1cccc(CN2CCCCC2)c1)NC#N)CCC(c1ccccc1)c1ccccn1 (stereo not shown) [Example 10, N-cyano-N'-[3-[N-[3-phenyl-3-(2-pyridyl)propyl]-N-methylamino]propyl]-N"-[3-[3-(piperidinomethyl)phenoxy]propyl]guanidine]	6.46	1480
CN(CCCCCCCNC(=C[N+](=O)[O-])NCCSCc1csc(NC(=N)N)n1)CCC(c1ccc(Cl)cc1)c1ccccn1 (stereo not shown) [Example 23, N-[7-[N-[3-(4-chlorophenyl)-3-(2-pyridyl)propyl]-N-methylamino]heptyl]-N'-[2-[[(2-guanidino-4-thiazolyl)methyl]thio]ethyl]-2-nitro-1,1-ethenediamine]	5.01	12.6
COc1ccc(CN(CCN(C)CCCCCCN=C(NC#N)NCCSCc2csc(NC(=N)N)n2)c2ccccn2)cc1 [Example 79, N-cyano-N'-[2-[[(2-guanidino-4-thiazolyl)methyl]thio]ethyl]-N"-[6-[N-[2-[N-(4-methoxybenzyl)-N-(2-pyridyl)amino]ethyl]-N-methylamino]hexyl]-guanidine]	2.45	245
COc1ccc(CN(CCN(C)CCCCCCNC(=C[N+](=O)[O-])NCCSCc2csc(NC(=N)N)n2)c2ccccn2)cc1 [Example 96, N-[2-[[(2-guanidino-4-thiazolyl)methyl]thio]ethyl]-N'-[6-[N-[2-[N-(4-methoxybenzyl)-N-(2-pyridyl)amino]ethyl]-N-methylamino]hexyl]-2-nitro-1,1-ethenediamine]	3.09	5.25
CN(CCCCNC(=NCCCOc1cccc(CN2CCCCC2)c1)NC#N)CCC(c1ccccc1)c1ccccn1 (stereo not shown) [Example 9, N-cyano-N'-[4-[N-[3-phenyl-3-(2-pyridyl)propyl]-N-methylamino]butyl]-N"-[3-[3-(piperidinomethyl)phenoxy]propyl]guanidine]	11.7	501
COc1ccc(CN(CCN(C)CCCCNC(=O)NCCSCc2csc(NC(=N)N)n2)c2ccccn2)cc1 [Example 88, N-[2-[[(2-guanidino-4-thiazolyl)methyl]thio]ethyl]-N'-[4-[N-[2-[N-(4-methoxybenzyl)-N-(2-pyridyl)amino]ethyl]-N-methylamino]butyl]urea]	1.82	219
COc1ccc(CN(CCN(C)CCCCCCNC(=C[N+](=O)[O-])NCCCOc2cccc(CN3CCCCC3)c2)c2ccccn2)cc1 [Example 75, N-[6-[N-[2-[N-(4-methoxybenzyl)-N-(2-pyridyl)amino]ethyl]-N-methylamino]hexyl]-N'-[3-[3-(piperidinomethyl)phenoxy]propyl]-2-nitro-1,1-ethenediamine]	12.3	123
CN(CCCCCCCNC(=O)NCCSCc1csc(NC(=N)N)n1)CCC(c1ccc(Cl)cc1)c1ccccn1 (stereo not shown) [Example 36, N-[7-[N-[3-(4-chlorophenyl)-3-(2-pyridyl)propyl]-N-methylamino]heptyl]-N'-[2-[[(2-guanidino-4-thiazolyl)methyl]thio]ethyl]urea]	5.37	26.9
CN(CCCCCCCNC(=NCCSCc1csc(NC(=N)N)n1)NC#N)CCC(c1ccc(Cl)cc1)c1ccccn1 (stereo not shown) [Example 20, N-[7-[N-[3-(4-chlorophenyl)-3-(2-pyridyl)propyl]-N-methylamino]heptyl]-N'-cyano-N"-[2-[[(2-guanidino-4-thiazolyl)methyl]thio]ethyl]guanidine]	4.17	30.9
CN(CCCCCNC(=O)NCCCOc1cccc(CN2CCCCC2)c1)CCN(Cc1ccc(F)cc1)c1ccccn1 [Example 70, N-[5-[N-[2-[N-(4-fluorobenzyl)-N-(2-pyridyl)amino]ethyl]-N-methylamino]-pentyl]-N'-[3-[3-(piperidinomethyl)phenoxy]propyl]urea]	9.55	135
CN(CCCCCCNC(=NCCCOc1cccc(CN2CCCCC2)c1)NC#N)CCN(Cc1ccc(F)cc1)c1ccccn1 [Example 60, N-cyano-N'-[6-[N-[2-[N-(4-fluorobenzyl)-N-(2-pyridyl)amino]ethyl]-N-methylamino]hexyl]-N"-[3-[3-(piperidinomethyl)phenoxy]propyl]guanidine]	8.71	389
